{
  "source": "patent US20070021360A1",
  "about": "“Compositions, formulations and kit with anti-sense oligonucleotide and anti-inflammatory steroid and/or obiquinone for treatment of respiratory and lung disesase” (priority 2001, published 2007)",
  "key": {"HT-29 SF cells [1]": {"system": "HT-29 SF cells", "experiment": "DHEA effect on cell cycle distribution (flow cytometry)", "type": "cell-based, human", "settings": "25, 50, or 200 μM DHEA; 24, 48, 72 hours", "experimental": "Cells were plated at 10^5/60-rm dish in duplicate. […] Cultures were trypsinized following […] and fixed and stained using a modification of a procedure of Bauer et al., Cancer Res., 46, 3173-3178 (1986). Briefly, cells were collected by centrifugation and resuspended in cold phosphate-buffered saline. Cells were fixed in 70% ethanol, washed, and resuspended in phosphate-buffered saline.\nAfter 24, 48, and 72 hours, cells were harvested, fixed in ethanol, and stained with propidium iodide, and the DNA content/cell was determined by flow cytometric analysis. The percentage of cells in G1, S, and G2M phases was calculated using the Cellfit cell cycle analysis program. S phase is marked by a quadrangle for clarity. Representative histograms from duplicate determinations are shown. The experiment was repeated three times.\nA transient increase in G2M phase cells was apparent after 48 hours."}, "HT-29 SF cells [2]": {"system": "HT-29 SF cells", "experiment": "DHEA effect on cell growth (Coulter counter)", "protocol": "Cell cultures, HT-29 SF cells, which represent a subline of HY-29 cells (ATCC, Rockville, Md.) and are adapted for growth in completely defined serum-free PC-1 medium (Ventrex, Portland, Me.), were obtained. Stock cultures were maintained in this medium at 37° in a humidified atmosphere containing 5% CO2."}, "G6PDH": {"system": "G6PDH", "experiment": "Enzymatic assay of purified G6PDH", "settings": "in vitro; compared to control", "protocol": "All experiments were repeated 4 times.\nA second group was added different concentrations of a CoQ of long side chain (in triplicate), and a third group received a CoQ of short side chain (in triplicate), both at various doses in the μM range.\nThe reaction was started by addition of the enzyme, and the increase in absorbance at 340 nm was measured for 5 minutes. Each data point was conducted in triplicate, and the full experiment was repeated 4 times."}},
  "data": [
    {"compound": "C[C@]12CC[C@H](O)CC1=CC[C@@H]1[C@@H]2CC[C@]2(C)C(=O)CC[C@@H]12", "note": "[DHEA, 3β-hydroxyandrost-5-en-17-one]", "values": [
      {"measurement": "effect on cell cycle distribution", "setting": "HT-29 SF cells [1]", "value": "G1 block"},
      {"measurement": "inhibition of growth", "setting": "HT-29 SF cells [2]; 0-200 μM DHEA, 0-72 hours", "value": "time- and dose-dependent inhibition of growth"},
      {"measurement": "exposure time after which cell number was reduced compared to controls", "setting": "HT-29 SF cells [2]; 12.5 μM DHEA", "value": 72, "unit": "h"},
      {"measurement": "exposure time after which cell number was reduced compared to controls", "setting": "HT-29 SF cells [2]; 200 μM DHEA", "value": 24, "unit": "h"},
      {"measurement": "exposure time after which cell number was reduced compared to controls", "setting": "HT-29 SF cells [2]; 25 or 50 μM DHEA", "value": 48, "unit": "h"},
      {"measurement": "inhibition of activity of purified G6PDH", "setting": "G6PDH", "value": 72, "unit": "%"}
    ]}
  ]
}
